Reference: patent US20160136118A1, “COMPOSITIONS AND METHODS FOR THE TREATMENT OF A COMMON COLD AND SYMPTOMS THEREOF” (3E THERAPEUTICS CORPORATION, priority 2007, published 2016)

How the values were obtained:
[1] = tested on: human patients exposed to cat allergen; experiment: Single-blind study, exposure to cat allergen after contrast media pretreatment (Example 11); format: in vivo; details: for Reactions on exposure to cat allergen: allergen diluted 1:10
Protocol: A single-blind study was conducted using three human patients. The patients were exposed to cat allergen at three different dilutions, 1:1,000, 1:100, and 1:10. […] Exposure to the 1:100 dilution of allergen caused a mild reaction in all of the patients. Exposure to the 1:10 dilution of allergen caused moderate reactions in all of the patients, with one patient in particular requiring some treatment for the reaction.
Patients were then pre-treated with VISIPAQUE®320 (iodixanol).
Patients were pre-treated with Iotrolan 280.
Table 1 summarizes the results and symptoms after exposure to a 1:10 dilution of cat allergen both with and without pretreatment with VISIPAQUE®320 or Iotrolan 280.

[2] = tested on: histamine, dust allergen and grass allergen injected into patient's arm; experiment: Skin reaction to injected histamine, dust allergen and grass allergen after topical pretreatment of the arm (Example 13); format: in vivo, human
Protocol: FIG. 1 is a photograph showing the response of the patient to 6 injections. Three substances were each injected twice at two different locations, for a total of 6 injections. Each substance was injected at one location that had been pretreated with CHOLOGRAFIN® meglumine and at a second location that had not been pretreated. CHOLOGRAFIN® meglumine, which comprises 80% Iodipamide in emollient, was applied topically to part of a patient's arm. Forty five minutes after application of the CHOLOGRAFIN® meglumine, each of the three substances was injected into the two different locations on the arm, one pretreated and one that was not pretreated. The three substances were histamine, dust allergen, and grass allergen. Referring to FIG. 1, the two histamine injections went into the upper level of the arm, the two dust allergen injections went into the middle level of the arm, and the two grass allergen injections went into the lower level of the arm. FIG. 1 is a photograph showing the resulting reactions taken 2.5 hours after the injections. […] The reactions of upper, middle and lower levels of the arm on the untreated sides were rated with scores of 3+, 4+, and 4+, respectively. The reactions of the upper, middle and lower levels of the arm on the pretreated sides were rated with scores of 1+, 2+, and 2+, respectively.

[3] = tested on: human patients exposed to cat allergen; experiment: Single-blind study, cat allergen at three dilutions with or without pretreatment, symptoms per patient (Example 12); format: in vivo; design: Drip / Congestion / Itch: scale not given here; details: for Itch / Sneezes / Congestion / Drip: pretreatment
Protocol: A single-blind study was conducted using three human patients. Patients were pre-treated with VISIPAQUE®320 (Iodixanol) or not treated with contrast media. The patients were exposed to cat allergen at three different dilutions, 1:1000, 1:100, and 1:10. Patient symptoms of itch, drip, congestion, and sneeze were assessed.
Tables 2-4 show the results and symptoms after exposure to the indicated dilution of cat allergen both with and without pretreatment with VISIPAQUE®320.
In a similar study, patients were treated with Iotrolan 280 prior to exposure to 1:10, 1:100, or 1:1000 dilutions of cat allergen.

[4] = 1:10 dilution of cat allergen, pretreatment, three human patients
[5] = Patient 1, 1:10 concentration cat allergen
[6] = Patient 1, 1:100 concentration cat allergen
[7] = Patient 1, 1:1000 concentration cat allergen
[8] = Patient 2, 1:10 concentration cat allergen
[9] = Patient 2, 1:100 concentration cat allergen
[10] = Patient 2, 1:1000 concentration cat allergen
[11] = Patient 3, 1:10 concentration cat allergen
[12] = Patient 3, 1:100 concentration cat allergen
[13] = Patient 3, 1:1000 concentration cat allergen

CN(C(=O)CC(=O)N(C)c1c(I)c(C(=O)NC(CO)C(O)CO)c(I)c(C(=O)NC(CO)C(O)CO)c1I)c1c(I)c(C(=O)NC(CO)C(O)CO)c(I)c(C(=O)NC(CO)C(O)CO)c1I (centres unmarked) [Iotrolan 280, Iotrolan]
0: Itch [1, 4]
decreased reaction: Reaction to the cat allergen compared to the reaction without pretreatment ([1]; 1:10 dilution of cat allergen)
mild reactions: Reactions on exposure to cat allergen ([1]; after pretreatment)
2×: Sneezes [1, 4]

O=C(CCCCC(=O)Nc1c(I)cc(I)c(C(=O)O)c1I)Nc1c(I)cc(I)c(C(=O)O)c1I [iodipamide, Iodipamide]
decreased reaction: Reaction to histamine, dust allergen and grass allergen, pretreated versus untreated side [2]

CC(=O)N(CC(O)CN(C(C)=O)c1c(I)c(C(=O)NCC(O)CO)c(I)c(C(=O)NCC(O)CO)c1I)c1c(I)c(C(=O)NCC(O)CO)c(I)c(C(=O)NCC(O)CO)c1I (centres unmarked) [Visipaque 320, iodixanol]
decreased reaction: Reaction to the cat allergen compared to the reaction without pretreatment ([1]; 1:10 dilution of cat allergen)
not associated with any symptoms: Symptoms on exposure to cat allergen ([1]; cat allergen diluted 1:100, after pretreatment)
decreased symptoms: Symptoms in response to the cat allergen compared to the reaction without pretreatment ([3]; 1:1000, 1:100, 1:10 dilutions, three human patients)
0: Itch [3, 5] | Congestion [3, 6] | Drip [3, 6] | Itch [3, 6] | Congestion [3, 7] | Drip [3, 7] | Itch [3, 7] | Congestion [3, 8] | Drip [3, 8] | Itch [3, 8] | Congestion [3, 9] | Drip [3, 9] | Itch [3, 9] | Congestion [3, 10] | Drip [3, 10] | Itch [3, 10] | Drip [3, 11] | Congestion [3, 12] | Drip [3, 12] | Itch [3, 12] | Congestion [3, 13] | Itch [3, 13]
2×: Sneezes [3, 5] | Sneezes [3, 11] | Sneezes [1, 4]
mild reactions: Reactions on exposure to cat allergen ([1]; after pretreatment)
0 ×: Sneezes [3, 6] | Sneezes [3, 7] | Sneezes [3, 8] | Sneezes [3, 9] | Sneezes [3, 10] | Sneezes [3, 12] | Sneezes [3, 13]
